Values belong to the compound of their own block, whether it stands above or below them.
Key:
[1] = tested on: McA-RH7777 cells expressing human apoB100; assay: Pulse-chase of [35S]apoB100 with rate flotation of conditioned medium and microsomal lumen; format: cell-based, rat; details: 30 min pulse, end of 1-h chase
Description: Cell Culture and Fatty Acid Treatments—Transfected McA-RH7777 cells stably expressing human apoB100 (McLeod et al., 1994, J. Biol. Chem. 269, 2852-2862) were cultured in Dulbecco's modified Eagle's medium (DMEM) containing 10% fetal bovine serum (FBS), 10% horse serum and 200 μg/ml G418. Routinely, the cells were incubated with 0.4 mM fatty acids for 16-18 h in the presence of 20% FBS prior to experiments.

[2] = tested on: McA-RH7777 cells stably expressing human apoB100; assay: Transmission electron microscopy morphometry of lipid/lipoprotein particles in Golgi and GAV; format: cell-based, rat; details: for relative occurrence of particle type in the GAV: n=221; for relative occurrence of particle type in trans-Golgi saccules 4-6+TGN/secretory vesicles: n=284
Description: The samples were processed for transmission electron microscopy as previously described (Tran et al., 2002). Single and serial thin sections (silver-gold interference colors) were visualized in a Hitachi H-7000 transmission electron microscope, and captured at a range of negative magnifications (8,000-120,000 times). Panoramic tiling was used to capture large fields. The 3D model was prepared from Golgi fields from 7 consecutive serial images (positive magnification=70,000 times), by the method previously described (Thorne-Tjomsland et al., 1998, Anat. Rec. 250, 381-396), with the following modifications. The serial fields were scanned into Adobe Photoshop 5.5 of an Imac 700 MHz G4 computer. Alignment of consecutive sections by fiducial markers was carried out prior to object-contouring and -separation. Concatenation and volume rendering were done in Synu on an SGI-OS 2, and image capture was with Photoshop on a Macintosh platform. The diameter of electron-dense particles, which represent a combination of lipoprotein particles and lipid droplets, were measured in 40 randomly selected Golgi regions from EPA-treated cells. Negative magnification was 40,000 times and positives were further magnified three times. Measurements were from positives, using a digital caliper [technical specifications in required range (0-150 mm on positive): max resolution=0.01 mm; accuracy=0.02 mm; repeatability=0.01 mm]. The precision in our system was tested by measuring the diameters of each of two electron-dense particles (20 nm and 40 nm diameter) 40 times; SD for the average converted measurements was <1 nm. Criteria for selecting Golgi, establishing cis-trans polarity, and measuring lipid/lipoprotein particles were as described (Tran et al., 2002). Lipid/lipoprotein particles were classified as membrane-associated if directly apposed to the lumenal Golgi leaflet or with a membrane diverging from this, otherwise as lumenal.

[3] = tested on: McA-RH7777 cells stably expressing human apoB100; assay: Pulse-chase with subcellular fractionation: membrane-associated apoB100 trafficking; format: cell-based, rat; details: 20 min pulse
Description: The cells were then incubated with chase medium for 15, 30 and 45 min. At the end of each chase time, the medium was collected and subjected to cumulative rate flotation centrifugation (Wang et al., 1999) to resolve apoB100-VLDL1 (Sf>100) and apoB100-VLDL2 (Sf 20-100) from other lipoproteins (i.e. IDL, LDL and HDL). The ^35S-apoB100 in each fraction was recovered by immunoprecipitation. Also, at the end of each chase time, the radiolabeled cells were harvested in 2 ml of ice-cold homogenization buffer (10 mM Tris-HCl, pH 7.4, 250 mM sucrose, 5 mM EDTA, and serine/cysteine protease inhibitor mixture), mixed with two 100-mm dishes of unlabeled cells, homogenized by passing ten times through a ball-bearing homogenizer, and subjected to subcellular fractionation and carbonate-treatment as described below. […]
Analysis of ApoB100 Associated with Membranes and Lumenal Contents of Microsomes—Lumenal contents were separated from membranes by sodium carbonate treatment followed by centrifugation (Tran et al., 2002). The ^35S-labelled apoB100 proteins associated with the membrane and lumen were recovered by immunoprecipitation and analyzed by SDS-PAGE/fluorography as previously described (Tran et al., 2002). […]

[4] = tested on: McA-RH7777 cells stably expressing human apoB100; assay: Immunofluorescent localization of apoB and Map1LC3; format: cell-based, rat; details: 0.4 mM, 4 h, in comparison to controls
Description: Cells were permeabilized with 1% Triton X-100 in blocking buffer (10% FBS in PBS) for 30 min and probed with primary antibodies, i.e., monoclonal antibody 1D1 (1:1000) for human apoB and polyclonal antibody against rat Map1LC3 (1:200) for 1 h. Cells were then incubated with a mixture of secondary antibodies (1:200), i.e., of goat anti-mouse IgG conjugated with Alexa Fluor™488 (green) and goat anti-rabbit IgG conjugated with Alexa Fluor™594 (red) for 1 h. The coverslips were mounted onto glass slides using SlowFade AntiFade kits (Molecular Probes) and the images were captured by an MRC-1024 laser scanning confocal imaging system. […] The secondary antibody for apoB was conjugated with Alexa Fluor™488 (green), and that for Map1LC3 was conjugated with Alexa Fluor™594 (red).

[5] = tested on: McA-RH7777 cells stably expressing human apoB100; details: Tran et al., 2002, cited from earlier work
McA-RH777 cells = details: oleate-treated cells; cited from earlier work

increase of [^35S]-apoB100 in fractions of high density (IDL and LDL) in the microsomal lumen ([1]; vs oleate): six-fold
Structure (SMILES): CC/C=C\C/C=C\C/C=C\C/C=C\C/C=C\CCCC(=O)O [EPA, eicosapentaenoic acid]
decrease of [^35S]-apoB100 in VLDL (VLDL1 and VLDL2) in the media, as compared to oleate-treatment ([1]; 16 h pretreatment): 50%
average size of Type I particles in the cis-most Golgi saccule ([2]; EPA-treated cells): 100 nm
average size of Type V particles ([2]; EPA-treated cells): 54.5 nm
sizes of Type V particles in the Golgi ([2]; EPA-treated cells): 25-75 nm
Percent membrane association of particles ([2]; Type I, GAV): 33%
Percent membrane association of particles ([2]; Type I, Golgi saccule 1): 100%
Percent membrane association of particles ([2]; Type I, Golgi saccule 2): 84%
Percent membrane association of particles ([2]; Type I, Golgi saccule 3): 80%
Percent membrane association of particles ([2]; Type I, Golgi saccules 4-6): 73%
Percent membrane association of particles ([2]; Type I, TGN and secretory): 56%
relative occurrence of particle type in the GAV ([2]; Type I): 12%
relative occurrence of particle type in trans-Golgi saccules 4-6+TGN/secretory vesicles ([2]; Type I): 12%
Percent membrane association of particles ([2]; Type II, GAV): 25%
Percent membrane association of particles ([2]; Type II, Golgi saccule 1): 100%
Percent membrane association of particles ([2]; Type II, Golgi saccule 2): 83%
Percent membrane association of particles ([2]; Type II, Golgi saccule 3): 75%
relative occurrence of particle type in the GAV ([2]; Type II): 2%
relative occurrence of particle type in trans-Golgi saccules 4-6+TGN/secretory vesicles ([2]; Type II): 4%
Percent membrane association of particles ([2]; Type III, GAV): 46%
Percent membrane association of particles ([2]; Type III, Golgi saccule 1): 100%
Percent membrane association of particles ([2]; Type III, Golgi saccule 2): 83%
Percent membrane association of particles ([2]; Type III, Golgi saccule 3): 83%
Percent membrane association of particles ([2]; Type III, Golgi saccules 4-6): 82%
Percent membrane association of particles ([2]; Type III, TGN and secretory): 73%
relative occurrence of particle type in the GAV ([2]; Type III): 11%
relative occurrence of particle type in trans-Golgi saccules 4-6+TGN/secretory vesicles ([2]; Type III): 13%
Percent membrane association of particles ([2]; Type IV, GAV): 45%
Percent membrane association of particles ([2]; Type IV, Golgi saccules 4-6): 50%
Percent membrane association of particles ([2]; Type IV, TGN and secretory): 20%
Percent membrane association of particles ([2]; Type IV, combined Golgi saccules 1-3): 67%
relative occurrence of particle type in the GAV ([2]; Type IV): 5%
relative occurrence of particle type in trans-Golgi saccules 4-6+TGN/secretory vesicles ([2]; Type IV): 5%
Percent membrane association of particles ([2]; Type V, GAV): 42%
Percent membrane association of particles ([2]; Type V, Golgi saccule 1): 96%
Percent membrane association of particles ([2]; Type V, Golgi saccule 2): 83%
Percent membrane association of particles ([2]; Type V, Golgi saccule 3): 66%
Percent membrane association of particles ([2]; Type V, Golgi saccules 4-6): 64%
Percent membrane association of particles ([2]; Type V, TGN and secretory): 66%
relative occurrence of particle type in the GAV ([2]; Type V): 70%
relative occurrence of particle type in trans-Golgi saccules 4-6+TGN/secretory vesicles ([2]; Type V): 66%

Structure (SMILES): CCCCCCCC/C=C\CCCCCCCC(=O)O [Oleate, oleic acid]
rate at which the membrane-associated [^35S]-apoB100 exited the ER ([3]; chase 0, 15, 30 and 45 min): −0.59±0.17 % of total/min
rate at which the membrane-associated [^35S]-apoB100 appeared in the distal Golgi ([3]; chase 0-45 min): 0.39±0.11 % of total/min
autophagy (penetration of Map1LC3 staining into the apoB100-rich perinuclear area, partial co-localization with apoB100) [4]: induced autophagy
size of lipoprotein particles detected in oleate-treated cells [5]: 40 nm
average diameters of lipoproteins in Golgi saccules 1-6 ([5]; oleate-treated McArdle cells): 40±17 nm
share of total secreted TG carried by VLDL particles (McA-RH777 cells): > 80%
share of total secreted apoB100 carried by VLDL particles (McA-RH777 cells): < 10%
